Test results reported in ChEMBL document CHEMBL5584243, “Discovery of JNJ-74856665: A Novel Isoquinolinone DHODH Inhibitor for the Treatment of AML” (J Med Chem, 2024).
≈ marks a conversion by molar mass, not a printed value.

Assays:
[1] = Tmax in cynomolgus monkey at 10 mg/kg,po; format: ADME, organism-based, Macaca fascicularis; conditions: in vivo
[2] = Inhibition of Sodium ion channel (unknown origin); design: species or system Homo sapiens
[3] = tested on: MOLM-13; test: Antitumor activity against human MOLM-13 cells xenografted in NSG mouse assessed as tumor growth inhibition at 0.25 mg/kg,po administrated daily for 10 days relative to control; format: functional; conditions: MOLM-13, 240 h, time 10 day, read-out: TGI
[4] = Cmax in cynomolgus monkey at 10 mg/kg,po; format: ADME, organism-based, Macaca fascicularis; conditions: in vivo
[5] = Plasma protein binding in human at 1 uM incubated for 6.5 hrs by LC-MS/MS analysis; format: ADME, cell-free; conditions: read-out: PPB (converted)
[6] = target: Kappa-type opioid receptor (Homo sapiens, UniProt P41145); test: Inhibition of KOP (unknown origin) at 10 uM relative to control
[7] = tested on: MOLM-13; test: Antitumor activity against human MOLM-13 cells xenografted in NSG mouse assessed as tumor growth inhibition at 0.125 mg/kg,po administrated daily for 10 days relative to control; format: functional; conditions: MOLM-13, 240 h, time 10 day, read-out: TGI
[8] = Half life in monkey hepatocyte; format: ADME, cell-based, Macaca mulatta; conditions: rhesus monkey, hepatocytes
[9] = Half life in dog hepatocyte; format: ADME, cell-based, Canis lupus familiaris; conditions: hepatocytes
[10] = target: Serine/threonine-protein kinase WNK2 (Homo sapiens) (UniProt Q9Y3S1); test: Inhibition of WNK2 (unknown origin) at 1 uM relative to control
[11] = Metabolic stability in monkey liver microsomes assessed as half life incubated upto 60 mins in presence of NADPH by LC-MS/MS analysis; format: ADME, Macaca mulatta, Microsome; conditions: rhesus monkey
[12] = tested on: MOLM-13; test: Antitumor activity against human MOLM-13 cells xenografted in NSG mouse assessed as tumor growth inhibition at 0.031 mg/kg,po administrated daily for 10 days relative to control; format: functional; conditions: MOLM-13, 240 h, time 10 day, read-out: TGI
[13] = AUC (0 to infinity) in cynomolgus monkey at 10 mg/kg,po; format: ADME, organism-based, Macaca fascicularis; conditions: in vivo
[14] = Half life in human hepatocyte; format: ADME, cell-based; conditions: hepatocytes
[15] = Metabolic stability in rat liver microsomes assessed as half life incubated upto 60 mins in presence of NADPH by LC-MS/MS analysis; format: ADME, Microsome
[16] = Cmax in C57BL mouse at […] measured upto 24 hrs by LC-MS/MS analysis; format: ADME, organism-based; conditions: in vivo
[17] = Oral bioavailability in cynomolgus monkey at 10 mg/kg; format: ADME, organism-based, Macaca fascicularis; conditions: in vivo
[18] = Metabolic stability in dog liver microsomes assessed as half life incubated upto 60 mins in presence of NADPH by LC-MS/MS analysis; format: ADME, Canis lupus familiaris, Microsome
[19] = Lipophilicity, logD of compound; format: physicochemical; conditions: octanol/water
[20] = target: T1, Dihydroorotate dehydrogenase (quinone), mitochondrial (Homo sapiens, UniProt Q02127); test: Binding affinity to recombinant human DHODH assessed as half life
[21] = Equilibrium solubility of compound in PBS at pH 7 incubated for 2 to 5 days by HPLC analysis; format: physicochemical; conditions: time 2-5 day
[22] = Tmax in C57BL mouse at […] measured upto 24 hrs by LC-MS/MS analysis; format: ADME, organism-based; conditions: in vivo
[23] = target: CYP3A4 (Homo sapiens, UniProt P08684); test: Induction of CYP3A4 in cryopreserved human hepatocytes using midazolam as substrate assessed as fold change at 10 uM relative to control; format: ADME, cell-based, Hepatocyte; conditions: probe midazolam, read-out: FC
[24] = Toxicity in NSG mouse xenografted with human MOLM-13 cells assessed as change in body weight at 0.031 to 0.25 mg/kg,po administrated daily for 10 days relative to control; format: organism-based; conditions: in vivo, 240 h, dose 0.031-0.25 mg/kg, time 10 day
[25] = target: T1, Dihydroorotate dehydrogenase (quinone), mitochondrial; test: Binding affinity to recombinant human DHODH assessed as dissociation constant by surface plasmon resonance assay
[26] = Equilibrium solubility of compound in PBS at pH 2 incubated for 2 to 5 days by HPLC analysis; format: physicochemical; conditions: PBS, time 2-5 day
[27] = Plasma protein binding in C57BL mouse at 1 uM incubated for 6.5 hrs by LC-MS/MS analysis; format: ADME, cell-free; conditions: read-out: PPB (converted)
[28] = tested on: MOLM-13; test: Antitumor activity against human MOLM-13 cells xenografted in NSG mouse assessed as tumor growth inhibition at 0.062 mg/kg,po administrated daily for 10 days relative to control; format: functional; conditions: MOLM-13, 240 h, time 10 day, read-out: TGI
[29] = Half life in C57BL mouse at 2 mg/kg,iv measured upto 24 hrs by LC-MS/MS analysis; format: ADME, organism-based; conditions: in vivo
[30] = Half life in rat hepatocyte; format: ADME, cell-based; conditions: hepatocytes
[31] = Half life in mouse hepatocyte; format: ADME, cell-based; conditions: hepatocytes
[32] = AUC (0 to infinity) in C57BL mouse at 2 mg/kg,iv measured upto 24 hrs by LC-MS/MS analysis; format: ADME, organism-based; conditions: in vivo
[33] = Metabolic stability in mouse liver microsomes assessed as half life incubated upto 60 mins in presence of NADPH by LC-MS/MS analysis; format: ADME, Microsome
[34] = Passive permeability across apical to basolateral side in dog MDCK-MDR1 cells; format: ADME, cell-based, Canis lupus familiaris
[35] = target: T2, Aryl hydrocarbon receptor (Homo sapiens, UniProt P35869); test: Activation of AhR (unknown origin) at 1 to 10 uM; conditions: dose 1-10 µM
T2 sequence (P35869 whole entry): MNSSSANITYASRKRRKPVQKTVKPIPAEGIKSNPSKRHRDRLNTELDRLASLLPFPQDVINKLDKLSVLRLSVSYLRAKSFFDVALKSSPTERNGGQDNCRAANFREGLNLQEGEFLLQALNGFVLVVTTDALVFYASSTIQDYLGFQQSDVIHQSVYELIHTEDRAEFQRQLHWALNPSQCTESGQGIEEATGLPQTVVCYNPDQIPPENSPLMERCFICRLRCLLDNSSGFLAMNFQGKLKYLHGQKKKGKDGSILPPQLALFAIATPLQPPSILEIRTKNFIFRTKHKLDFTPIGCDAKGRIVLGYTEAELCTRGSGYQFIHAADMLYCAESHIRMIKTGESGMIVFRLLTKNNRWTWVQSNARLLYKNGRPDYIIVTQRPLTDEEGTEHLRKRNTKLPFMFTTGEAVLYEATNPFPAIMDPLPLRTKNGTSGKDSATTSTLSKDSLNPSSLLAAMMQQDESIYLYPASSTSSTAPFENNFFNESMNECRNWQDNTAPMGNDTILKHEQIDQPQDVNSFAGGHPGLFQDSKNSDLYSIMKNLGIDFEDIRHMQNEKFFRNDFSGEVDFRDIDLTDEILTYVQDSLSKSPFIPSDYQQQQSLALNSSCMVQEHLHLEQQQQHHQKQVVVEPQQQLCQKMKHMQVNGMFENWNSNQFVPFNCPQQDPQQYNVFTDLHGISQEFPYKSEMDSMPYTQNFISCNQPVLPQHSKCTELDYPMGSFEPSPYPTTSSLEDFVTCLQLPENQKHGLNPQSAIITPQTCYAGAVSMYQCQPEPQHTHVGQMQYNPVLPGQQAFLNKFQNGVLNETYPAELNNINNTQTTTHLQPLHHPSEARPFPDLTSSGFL

[36] = Oral bioavailability in C57BL mouse at 10 mg/kg measured upto 24 hrs by LC-MS/MS analysis; format: ADME, organism-based; conditions: in vivo
[37] = target: T3, AhR (aryl hydrocarbon receptor) (Homo sapiens, UniProt P35869); test: Activation of AhR (unknown origin) assessed as fold change at 1 to 10 uM relative to control; conditions: dose 1-10 µM, read-out: FC
T3 sequence (P35869 whole entry): T2 sequence (P35869 whole entry)

T1 sequence (Q02127 whole entry): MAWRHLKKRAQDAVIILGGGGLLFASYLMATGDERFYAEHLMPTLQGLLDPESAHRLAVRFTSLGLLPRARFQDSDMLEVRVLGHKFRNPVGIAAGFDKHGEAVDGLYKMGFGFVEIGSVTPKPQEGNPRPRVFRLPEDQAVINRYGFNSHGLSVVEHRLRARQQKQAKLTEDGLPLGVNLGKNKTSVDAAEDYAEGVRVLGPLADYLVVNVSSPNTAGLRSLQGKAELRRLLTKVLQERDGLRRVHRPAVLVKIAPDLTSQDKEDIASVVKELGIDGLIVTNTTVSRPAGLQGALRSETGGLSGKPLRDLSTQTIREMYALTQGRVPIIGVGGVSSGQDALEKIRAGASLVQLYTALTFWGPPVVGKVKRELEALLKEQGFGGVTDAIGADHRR
Sequence of Kappa-type opioid receptor (P41145 whole entry): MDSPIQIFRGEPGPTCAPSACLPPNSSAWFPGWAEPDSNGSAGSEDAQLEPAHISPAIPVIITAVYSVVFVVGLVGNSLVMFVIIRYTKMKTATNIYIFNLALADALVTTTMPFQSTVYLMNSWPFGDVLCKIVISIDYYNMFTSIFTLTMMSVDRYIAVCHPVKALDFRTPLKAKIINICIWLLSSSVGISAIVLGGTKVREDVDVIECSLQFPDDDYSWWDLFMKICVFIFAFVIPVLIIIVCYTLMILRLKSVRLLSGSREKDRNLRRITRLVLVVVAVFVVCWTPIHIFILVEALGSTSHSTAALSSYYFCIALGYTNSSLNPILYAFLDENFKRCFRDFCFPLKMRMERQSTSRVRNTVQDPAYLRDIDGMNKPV
Sequence of CYP3A4 (P08684 whole entry): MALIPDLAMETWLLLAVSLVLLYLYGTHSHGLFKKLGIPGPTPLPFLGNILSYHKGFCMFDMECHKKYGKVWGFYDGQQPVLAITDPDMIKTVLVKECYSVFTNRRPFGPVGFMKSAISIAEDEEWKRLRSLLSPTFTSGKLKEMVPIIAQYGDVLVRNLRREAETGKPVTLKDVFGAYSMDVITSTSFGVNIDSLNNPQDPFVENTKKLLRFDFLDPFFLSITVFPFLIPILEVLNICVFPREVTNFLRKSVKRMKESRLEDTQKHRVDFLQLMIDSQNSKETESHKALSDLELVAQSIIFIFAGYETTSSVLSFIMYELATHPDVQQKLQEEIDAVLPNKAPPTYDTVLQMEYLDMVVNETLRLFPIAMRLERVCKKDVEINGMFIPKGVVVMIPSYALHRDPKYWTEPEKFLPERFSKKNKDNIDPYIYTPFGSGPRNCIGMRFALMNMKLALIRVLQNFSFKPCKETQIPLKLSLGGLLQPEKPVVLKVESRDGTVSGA
Sequence of Serine/threonine-protein kinase WNK2 (Homo sapiens) (Q9Y3S1 whole entry): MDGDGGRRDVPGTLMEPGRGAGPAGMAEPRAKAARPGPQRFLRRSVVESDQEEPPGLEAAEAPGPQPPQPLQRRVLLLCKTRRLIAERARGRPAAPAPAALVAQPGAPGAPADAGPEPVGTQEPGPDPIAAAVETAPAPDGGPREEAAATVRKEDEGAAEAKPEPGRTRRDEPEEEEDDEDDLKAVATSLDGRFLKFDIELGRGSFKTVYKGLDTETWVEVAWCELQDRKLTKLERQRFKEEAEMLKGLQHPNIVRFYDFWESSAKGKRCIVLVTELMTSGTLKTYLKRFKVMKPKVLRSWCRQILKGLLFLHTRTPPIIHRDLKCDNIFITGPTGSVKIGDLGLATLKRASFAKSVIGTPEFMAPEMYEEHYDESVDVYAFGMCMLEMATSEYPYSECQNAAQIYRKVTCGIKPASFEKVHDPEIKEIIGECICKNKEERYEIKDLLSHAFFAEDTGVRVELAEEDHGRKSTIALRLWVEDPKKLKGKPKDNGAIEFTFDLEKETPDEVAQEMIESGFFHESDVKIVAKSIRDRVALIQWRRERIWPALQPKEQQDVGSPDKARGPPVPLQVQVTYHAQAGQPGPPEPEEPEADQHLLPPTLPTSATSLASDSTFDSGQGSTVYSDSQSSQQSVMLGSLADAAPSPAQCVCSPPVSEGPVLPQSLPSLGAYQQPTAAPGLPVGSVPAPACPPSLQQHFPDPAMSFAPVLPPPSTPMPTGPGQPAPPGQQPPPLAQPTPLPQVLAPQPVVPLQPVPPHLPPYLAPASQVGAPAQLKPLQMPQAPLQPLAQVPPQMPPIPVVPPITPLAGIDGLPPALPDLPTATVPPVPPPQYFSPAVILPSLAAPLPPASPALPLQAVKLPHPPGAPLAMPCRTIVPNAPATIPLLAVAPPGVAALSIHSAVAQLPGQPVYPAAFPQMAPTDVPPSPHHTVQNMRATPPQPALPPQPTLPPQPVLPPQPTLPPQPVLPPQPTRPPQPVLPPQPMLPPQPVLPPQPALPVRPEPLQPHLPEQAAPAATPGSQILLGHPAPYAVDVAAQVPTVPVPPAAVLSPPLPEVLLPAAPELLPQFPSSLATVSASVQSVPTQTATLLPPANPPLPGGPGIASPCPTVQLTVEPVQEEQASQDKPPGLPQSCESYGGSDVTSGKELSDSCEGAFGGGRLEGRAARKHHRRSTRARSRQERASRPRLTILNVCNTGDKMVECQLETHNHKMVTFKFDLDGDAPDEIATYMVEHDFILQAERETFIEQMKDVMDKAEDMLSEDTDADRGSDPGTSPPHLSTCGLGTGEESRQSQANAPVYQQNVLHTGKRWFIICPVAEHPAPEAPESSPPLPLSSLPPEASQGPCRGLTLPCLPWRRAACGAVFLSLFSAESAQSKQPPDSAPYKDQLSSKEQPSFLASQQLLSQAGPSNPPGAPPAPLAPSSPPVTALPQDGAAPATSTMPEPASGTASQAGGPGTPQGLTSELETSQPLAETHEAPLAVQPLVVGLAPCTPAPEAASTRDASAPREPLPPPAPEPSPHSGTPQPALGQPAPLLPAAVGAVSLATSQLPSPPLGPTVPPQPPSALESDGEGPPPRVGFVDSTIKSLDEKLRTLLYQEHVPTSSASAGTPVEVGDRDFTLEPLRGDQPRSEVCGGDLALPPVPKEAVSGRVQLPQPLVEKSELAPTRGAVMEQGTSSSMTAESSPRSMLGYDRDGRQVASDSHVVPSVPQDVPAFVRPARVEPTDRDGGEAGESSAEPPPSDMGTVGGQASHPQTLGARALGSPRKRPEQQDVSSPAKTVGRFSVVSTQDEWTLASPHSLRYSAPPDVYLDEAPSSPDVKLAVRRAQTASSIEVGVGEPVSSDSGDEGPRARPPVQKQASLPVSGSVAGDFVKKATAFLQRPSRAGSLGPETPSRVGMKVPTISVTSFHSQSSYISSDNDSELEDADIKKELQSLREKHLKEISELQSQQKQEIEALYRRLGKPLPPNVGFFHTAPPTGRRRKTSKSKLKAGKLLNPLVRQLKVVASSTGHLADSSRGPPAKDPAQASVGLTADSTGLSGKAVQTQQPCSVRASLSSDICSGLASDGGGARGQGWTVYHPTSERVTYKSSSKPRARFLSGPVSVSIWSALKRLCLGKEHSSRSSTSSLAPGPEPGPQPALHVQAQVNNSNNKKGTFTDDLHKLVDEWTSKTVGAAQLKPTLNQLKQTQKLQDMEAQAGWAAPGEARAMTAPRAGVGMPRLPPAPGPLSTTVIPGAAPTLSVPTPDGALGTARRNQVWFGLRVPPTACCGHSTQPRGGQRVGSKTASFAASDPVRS

`CCn1c(CO)nn(-c2cc3c(C(C)C)cn(-c4ccccc4C)c(=O)c3cc2F)c1=O` showed a Tmax [1] of 3.3 h, an IC50 [2] greater than 10000 nM and an inhibition in vivo at 0.25 mg/kg [3] of 93%. It also gave a Cmax [4] of 5800 ng/mL, a fraction unbound at 6.5 h, 1 µM [5] of 0.099 and an inhibition [6] of 96%. For the same compound, the inhibition in vivo at 0.125 mg/kg [7] was 92%, the half-life [8] was greater than 6.18 h and the half-life [9] was 0.242 h. The inhibition [10] was 51%, the half-life [11] was greater than 3 h and the inhibition in vivo at 0.031 mg/kg [12] was 42%. It also gave an AUC(0-inf) [13] of 64600 ng·h/mL, a half-life [14] greater than 6.18 h and a half-life [15] greater than 3 h. The Cmax [16] was 6200 ng/mL, the bioavailability [17] was 88% and the half-life [18] was 0.958 h. The logD [19] was 2.7, the T1/2 [20] was 0.328 h and the solubility thermodynamic [21] was 371 µM (≈ 162 µg/mL). For the same compound, the Tmax [22] was 1.7 h, the fold induction at 10 µM [23] was 2.5 and the Activity [24] was “Toxic”. It also gave a Kd [25] of 2.22 nM, a solubility thermodynamic [26] of 325 µM (≈ 142 µg/mL) and a fraction unbound at 6.5 h, 1 µM [27] of 0.088. The inhibition in vivo at 0.062 mg/kg [28] was 75%, the half-life [29] was 5.7 h and the half-life [30] was greater than 6.18 h. For the same compound, the half-life [31] was greater than 6.18 h, the AUC [32] was 57200 ng·h/mL and the half-life [33] was greater than 3 h. For the same compound, the Papp A→B [34] was 33.1 ×10⁻⁶ cm/s, the Activity [35] was “Not Active” and the bioavailability [36] was 125%. For the same compound, the fold induction [37] was less than 2.
